Here are results for two compounds from EPA's ToxValDB 9.5 (doi:10.2903/j.efsa.2009.190r).

As usually defined, the NOAEL is the highest dose or exposure tested at which no adverse effect was seen.

One series relates to Tagia sp. To be noted: acute; duration: 14 days; mortality.
The next series relates to Rattus norvegicus. The following applies: for NOAEL: inhalation.
The mark [1] stands for this setting: chronic, duration: 2 years, no effects.
The mark [2] stands for this setting: reproduction developmental, mortality.
Setting [3] is: subchronic, duration: 90 days, no effects.

Consider `[Mg+2].[Mg+2].[Mg+2].[P-3].[P-3]` [Magnesium phosphide], for which the LC50 with Tagia sp. came to 664 mg/kg. Besides, in the series on Rattus norvegicus (acute, oral, mortality), the LD50 was found to be 11.2 mg/kg-day. In addition, the no-observed-adverse-effect level (NOAEL) was 1.1 mg/kg-day with Rattus norvegicus (setting [1]), 1.9 mg/kg-day with Rattus norvegicus (setting [2]) and 1.1 mg/kg-day in the series with Rattus norvegicus (setting [3]).
On to `P` [Phosphine], for which the NOAEL worked out at 1.1 mg/kg-day in the series on Rattus norvegicus (setting [1]); 1.9 mg/kg-day in the series on Rattus norvegicus (developmental, duration: 10 days, development); 1.9 mg/kg-day in the series on Rattus norvegicus (setting [2]); 1.1 mg/kg-day in the series with Rattus norvegicus (subchronic, duration: 90 days, mortality); 1.1 mg/kg-day in the series on Rattus norvegicus (setting [3]).
